Experimental data: US10604535B2, “Compounds, compositions and methods” (Denali Therapeutics Inc., priority 2016, dated 2020)

tested on: FADD-deficient Jurkat cells; experiment: Cellular necroptosis assay (human TNFα-induced necrosis, CellTiter-Glo); assay type: cell-based; details: Homo sapiens, Jurkat, 48 h, TNFα 10 ng/mL, read-out: Cell IC50

**Q.** Which IC50 does the source give for `CN1C(=O)[C@@H](NC(=O)c2nnc(Cc3ccccc3)[nH]2)C[C@@H](F)c2ccccc21` (mixture of isomers) [Example 11, 5-benzyl-N-((3S,5R)-5-fluoro-1-methyl-2-oxo-2,3,4,5-tetrahydro-1H-benzo[b]azepin-3-yl)-4H-1,2,4-triazole-3-carboxamide and 5-benzyl-N-((3R,5S)-5-fluoro-1-methyl-2-oxo-2,3,4,5-tetrahydro-1H-benzo[b]azepin-3-yl)-4H-1,2,4-triazole-3-carboxamide] here?
**A.** 0.0001 to 1 µM

**Q.** With `CN1C(=O)[C@H](NC(=O)c2nnc(Cc3ccccc3)[nH]2)C[C@H](F)c2ccccc21` (mixture of isomers) [Example 11B, 5-benzyl-N-((3S,5R)-5-fluoro-1-methyl-2-oxo-2,3,4,5-tetrahydro-1H-benzo[b]azepin-3-yl)-4H-1,2,4-triazole-3-carboxamide and 5-benzyl-N-((3R,5S)-5-fluoro-1-methyl-2-oxo-2,3,4,5-tetrahydro-1H-benzo[b]azepin-3-yl)-4H-1,2,4-triazole-3-carboxamide] as the molecule, how does the IC50 read?
**A.** 0.0001 to 1 µM

**Q.** With `CN1C(=O)[C@@H](NC(=O)c2nnc(Cc3ccccc3)[nH]2)C[C@H](F)c2ccccc21` (mixture of isomers) [Example 12, 5-benzyl-N-((3S,5S)-5-fluoro-1-methyl-2-oxo-2,3,4,5-tetrahydro-1H-benzo[b]azepin-3-yl)-4H-1,2,4-triazole-3-carboxamide and 5-benzyl-N-((3R,5R)-5-fluoro-1-methyl-2-oxo-2,3,4,5-tetrahydro-1H-benzo[b]azepin-3-yl)-4H-1,2,4-triazole-3-carboxamide] as the molecule, how does the IC50 read?
**A.** 0.0001 to 1 µM

**Q.** For `CN1C(=O)[C@H](NC(=O)c2nnc(Cc3ccccc3)[nH]2)C[C@@H](F)c2ccccc21` (mixture of isomers) [Example 12B, 5-benzyl-N-((3S,5S)-5-fluoro-1-methyl-2-oxo-2,3,4,5-tetrahydro-1H-benzo[b]azepin-3-yl)-4H-1,2,4-triazole-3-carboxamide and 5-benzyl-N-((3R,5R)-5-fluoro-1-methyl-2-oxo-2,3,4,5-tetrahydro-1H-benzo[b]azepin-3-yl)-4H-1,2,4-triazole-3-carboxamide], which IC50 is on record?
**A.** 0.0001 to 1 µM

**Q.** With `CN1C(=O)[C@@H](NC(=O)c2cc(Cc3ccccc3)on2)CCc2sc(Cl)cc21` (stereo in doubt) [Example 1A, 5-Benzyl-N-(2-chloro-4-methyl-5-oxo-4H,5H,6H,7H,8H-thieno[3,2-b]azepin-6-yl)-1,2-oxazole-3-carboxamide] as the molecule, how does the IC50 read?
**A.** 0.0001 to 1 µM

**Q.** `CN1C(=O)C(NC(=O)c2cc(Cc3ccccc3)on2)[C@@H]2C[C@@H]2c2ccccc21` (stereo in doubt) [Example 7B, 5-benzyl-N-((2S)-4-methyl-3-oxo-1,1a,2,3,4,8b-hexahydrobenzo[b]cyclopropa[d]azepin-2-yl)isoxazole-3-carboxamide] was tested. Which IC50 did it give?
**A.** 1 to 10 µM

**Q.** With `CN1C(=O)C(NC(=O)c2cc(Cc3ccccc3)on2)CC(F)c2ccccc21` (stereo not shown) [Example 2, 5-benzyl-N-(5-fluoro-1-methyl-2-oxo-2,3,4,5-tetrahydro-1H-benzo[b]azepin-3-yl)isoxazole-3-carboxamide] as the molecule, how does the IC50 read?
**A.** 0.0001 to 1 µM

**Q.** Which IC50 does the source give for `CN1C(=O)[C@@H](NC(=O)c2ncc(Cc3ccccc3)s2)COc2ccccc21` [Example 5, (S)-5-benzyl-N-(5-methyl-4-oxo-2,3,4,5-tetrahydrobenzo[b][1,4]oxazepin-3-yl)thiazole-2-carboxamide] here?
**A.** 0.0001 to 1 µM

**Q.** For `CN1C(=O)[C@@H](NC(=O)c2cc(Cc3ccccc3)on2)[C@H]2C[C@H]2c2ccccc21` [Example 7A, 5-benzyl-N-((2S)-4-methyl-3-oxo-1,1a,2,3,4,8b-hexahydrobenzo[b]cyclopropa[d]azepin-2-yl)isoxazole-3-carboxamide], which IC50 is on record?
**A.** 0.0001 to 1 µM

**Q.** With `CN1C(=O)[C@@H](NC(=O)c2cc(Cc3ccccc3)[nH]n2)CC2(CC2)c2ccccc21` [Example 59, 5-benzyl-N-[(3S)-1-methyl-2-oxo-1,2,3,4-tetrahydrospiro[1-benzazepine-5,1-cyclopropane]-3-yl]-1H-pyrazole-3-carboxamide] as the molecule, how does the IC50 read?
**A.** 0.0001 to 1 µM

**Q.** `CN1C(=O)[C@@H](NC(=O)c2cc(Cc3ccccc3)[nH]n2)[C@H]2C[C@H]2c2ccccc21` [Example 60A, 5-benzyl-N-((1aS,2S,8bR)-4-methyl-3-oxo-1,1a,2,3,4,8b-hexahydrobenzo[b]cyclopropa[d]azepin-2-yl)-1H-pyrazole-3-carboxamide] was tested. Which IC50 did it give?
**A.** 0.0001 to 1 µM

**Q.** `CN1C(=O)[C@@H](NC(=O)c2coc(C3(c4ccccc4)CC3)n2)COc2ccccc21` [Example 61, (S)—N-(5-methyl-4-oxo-2,3,4,5-tetrahydrobenzo[b][1,4]oxazepin-3-yl)-2-(1-phenylcyclopropyl)oxazole-4-carboxamide] was tested. Which IC50 did it give?
**A.** 0.0001 to 1 µM

**Q.** `O=C(N[C@H]1COc2cccnc2NC1=O)c1cc(C2(c3ccccc3)CC2)on1` [Example 62, (S)—N-(4-oxo-2,3,4,5-tetrahydropyrido[3,2-b][1,4]oxazepin-3-yl)-5-(1-phenylcyclopropyl)isoxazole-3-carboxamide] was tested. Which IC50 did it give?
**A.** 0.0001 to 1 µM

**Q.** With `CN1C(=O)[C@@H](NC(=O)c2ncc(C3(c4ccccc4)CC3)s2)COc2cccnc21` [Example 63, (S)—N-(5-methyl-4-oxo-2,3,4,5-tetrahydropyrido[3,2-b][1,4]oxazepin-3-yl)-5-(1-phenylcyclopropyl)thiazole-2-carboxamide] as the molecule, how does the IC50 read?
**A.** 0.0001 to 1 µM

**Q.** Which IC50 does the source give for `CN1C(=O)[C@@H](NC(=O)c2nn(Cc3ccccc3)cc2F)COc2ccccc21` [Example 64, (S)-1-benzyl-4-fluoro-N-(5-methyl-4-oxo-2,3,4,5-tetrahydrobenzo[b][1,4]oxazepin-3-yl)-1H-pyrazole-3-carboxamide] here?
**A.** 0.0001 to 1 µM

**Q.** How did the IC50 turn out when `O=C(N[C@H]1COc2ccccc2-n2ccnc21)c1nnc(Cc2ccccc2)[nH]1` [Example 68A, (R)-5-benzyl-N-(4,5-dihydrobenzo[b]imidazo[1,2-d][1,4]oxazepin-4-yl)-4H-1,2,4-triazole-3-carboxamide] was run?
**A.** 0.0001 to 1 µM

**Q.** With `O=C(N[C@H]1CCc2ccccc2-n2cnnc21)c1nnc(Cc2ccccc2)[nH]1` [Example 69A, (S)-5-benzyl-N-(5,6-dihydro-4H-benzo[f][1,2,4]triazolo[4,3-a]azepin-4-yl)-4H-1,2,4-triazole-3-carboxamide] as the molecule, how does the IC50 read?
**A.** 0.0001 to 1 µM

**Q.** How did the IC50 turn out when `O=C(N[C@H]1CCc2ccccc2-n2cnnc21)c1cc(Cc2ccccc2)on1` [Example 71A, (S)-5-benzyl-N-(5,6-dihydro-4H-benzo[f][11,2,4]triazolo[4,3-a]azepin-4-yl)isoxazole-3-carboxamide] was run?
**A.** 0.0001 to 1 µM

**Q.** Which IC50 does the source give for `CN1C(=O)[C@@H](NC(=O)c2cc(C3(c4ccccc4)CC3)[nH]n2)COc2ccccc21` [Example 72, (S)—N-(5-methyl-4-oxo-2,3,4,5-tetrahydrobenzo[b][1,4]oxazepin-3-yl)-5-(1-phenylcyclopropyl)-1H-pyrazole-3-carboxamide] here?
**A.** 0.0001 to 1 µM

**Q.** How did the IC50 turn out when `CN1C(=O)[C@@H](NC(=O)c2cc(C3(c4ccccc4)CC3)[nH]n2)COc2cccnc21` [Example 73, (S)—N-(5-methyl-4-oxo-2,3,4,5-tetrahydropyrido[3,2-b][1,4]oxazepin-3-yl)-5-(1-phenylcyclopropyl)-1H-pyrazole-3-carboxamide] was run?
**A.** 0.0001 to 1 µM

**Q.** For `CN1C(=O)[C@@H](NC(=O)c2nn(Cc3ccccn3)cc2F)COc2cccnc21` [Example 74, (S)-4-fluoro-N-(5-methyl-4-oxo-2,3,4,5-tetrahydropyrido[3,2-b][1,4]oxazepin-3-yl)-1-(pyridin-2-ylmethyl)-1H-pyrazole-3-carboxamide], which IC50 is on record?
**A.** 0.0001 to 1 µM

**Q.** For `CN1C(=O)[C@@H](NC(=O)c2nn(Cc3ccccc3)cc2F)COc2cccnc21` [Example 76, (S)-1-benzyl-4-fluoro-N-(5-methyl-4-oxo-2,3,4,5-tetrahydropyrido[3,2-b][1,4]oxazepin-3-yl)-1H-pyrazole-3-carboxamide], which IC50 is on record?
**A.** 0.0001 to 1 µM

**Q.** With `CN1C(=O)[C@@H](NC(=O)c2ncc(C3(c4ccccc4)CC3)[nH]2)COc2ccccc21` [Example 78, (S)—N-(5-methyl-4-oxo-2,3,4,5-tetrahydrobenzo[b][1,4]oxazepin-3-yl)-5-(1-phenylcyclopropyl)-1H-imidazole-2-carboxamide] as the molecule, how does the IC50 read?
**A.** 0.0001 to 1 µM

**Q.** With `CN1C(=O)[C@@H](NC(=O)c2nc3cccc(-c4ccccc4F)c3s2)COc2ccccc21` [Example 79, (S)-7-(2-fluorophenyl)-N-(5-methyl-4-oxo-2,3,4,5-tetrahydrobenzo[b][1,4]oxazepin-3-yl)benzo[d]thiazole-2-carboxamide] as the molecule, how does the IC50 read?
**A.** 0.0001 to 1 µM

same assay, conditions: Homo sapiens, Jurkat, 48 h, read-out: Cell IC50, TNFα 10 ng/mL, 48 h

**Q.** How did the IC50 turn out when `O=C(N[C@H]1CCc2ccccc2-n2ccnc21)c1nnc(Cc2ccccc2)[nH]1` [Example 52, (S)-5-benzyl-N-(5,6-dihydro-4H-benzo[f]imidazo[1,2-a]azepin-4-yl)-4H-1,2,4-triazole-3-carboxamide] was run?
**A.** 0.0001 to 1 µM

same assay, conditions: TNFα 10 ng/mL, 48 h; read-out: Cell IC50

**Q.** How did the IC50 turn out when `CN1C(=O)[C@@H](NC(=O)c2nnc(Cc3ccccc3)[nH]2)C[C@@H](F)c2ccccc21` (mixture of isomers) [Example 11A, 5-benzyl-N-((3S,5R)-5-fluoro-1-methyl-2-oxo-2,3,4,5-tetrahydro-1H-benzo[b]azepin-3-yl)-4H-1,2,4-triazole-3-carboxamide and 5-benzyl-N-((3R,5S)-5-fluoro-1-methyl-2-oxo-2,3,4,5-tetrahydro-1H-benzo[b]azepin-3-yl)-4H-1,2,4-triazole-3-carboxamide] was run?
**A.** 0.0001 to 1 µM

**Q.** Which IC50 does the source give for `CN1C(=O)[C@@H](NC(=O)c2nnc(Cc3ccccc3)[nH]2)C[C@H](F)c2ccccc21` (mixture of isomers) [Example 12A, 5-benzyl-N-((3S,5S)-5-fluoro-1-methyl-2-oxo-2,3,4,5-tetrahydro-1H-benzo[b]azepin-3-yl)-4H-1,2,4-triazole-3-carboxamide and 5-benzyl-N-((3R,5R)-5-fluoro-1-methyl-2-oxo-2,3,4,5-tetrahydro-1H-benzo[b]azepin-3-yl)-4H-1,2,4-triazole-3-carboxamide] here?
**A.** 0.0001 to 1 µM

**Q.** For `CN1C(=O)[C@@H](NC(=O)c2nnc([C@H]3CCc4ccccc43)[nH]2)COc2cccnc21` [Example 54B, 5-((S)-2,3-dihydro-1H-inden-1-yl)-N—((S)-5-methyl-4-oxo-2,3,4,5-tetrahydropyrido[3,2-b][1,4]oxazepin-3-yl)-4H-1,2,4-triazole-3-carboxamide], which IC50 is on record?
**A.** 0.0001 to 1 µM
